Test results: patent US20230150953A1, “SUBSTITUTED ISOPHTHALIC ACID DIAMIDES” (Bayer Aktiengesellschaft, priority 2020, published 2023)

Assays:
Type in all cases: in vivo
MATIN Matricaria inodora [1] = assay: Post-emergence herbicidal action against harmful plants; settings: one-leaf stage, assessed visually after about 3 weeks vs untreated controls
Text: (§1) The abbreviations used for the harmful plants mean: • ABUTH Abutilon theophrasti ALOMY Alopecurus myosuroides • AVEFA Avena fatua AMARE Amaranthus retroflexus • CYPES Cyperus esculentus DIGSA Digitaria sanguinalis • ECHCG Echinochloa crus-galli HORMU Hordeum murinum • LOLMU Lolium multiflorum LOLRI Lolium rigidum • MATIN Matricaria inodora PHBPU Pharbitis purpurea • POLCO Polygonum convolvulus SETVI Setaria viridis • STEME Stellaria media VERPE Veronica persica • VIOTR Viola tricolor 2. Post-Emergence Herbicidal Action Against Harmful Plants Seeds of monocotyledonous and dicotyledonous weed and crop plants are laid out in sandy loam soil in wood-fiber pots, covered with soil and cultivated in a greenhouse under good growth conditions. 2 to 3 weeks after sowing, the test plants are treated at the one-leaf stage. The compounds of the invention, formulated in the form of wettable powders (WP) or as emulsion concentrates (EC), are then sprayed onto the green parts of the plants in the form of an aqueous suspension or emulsion at a water application rate equivalent to 600 to 800 l/ha, with addition of 0.2% wetting agent. After the test plants have been left to stand in the greenhouse under optimal growth conditions for about 3 weeks, the action of the preparations is assessed visually in comparison to untreated controls (herbicidal action in percent (%): 100% activity=the plants have died, 0% activity=like control plants). […] The tables below illustrate, in an illustrative manner, the post-emergence herbicidal action of the compounds of the invention, the herbicidal activity being stated in percent.

[2] = system: POLCO Polygonum convolvulus; assay: as above; settings: one-leaf stage, assessed visually after about 3 weeks vs untreated controls
Text: as §1

SETVI Setaria viridis [3] = assay: Pre-emergence herbicidal action against harmful plants; settings: scored visually after 3 weeks vs untreated controls
Text: (§2) The abbreviations used for the harmful plants mean: • ABUTH Abutilon theophrasti ALOMY Alopecurus myosuroides • AVEFA Avena fatua AMARE Amaranthus retroflexus • CYPES Cyperus esculentus DIGSA Digitaria sanguinalis • ECHCG Echinochloa crus-galli HORMU Hordeum murinum • LOLMU Lolium multiflorum LOLRI Lolium rigidum • MATIN Matricaria inodora PHBPU Pharbitis purpurea • POLCO Polygonum convolvulus SETVI Setaria viridis • STEME Stellaria media VERPE Veronica persica • VIOTR Viola tricolor 1. Pre-Emergence Herbicidal Action Against Harmful Plants Seeds of monocotyledonous and dicotyledonous weed plants and crop plants are laid out in sandy loam soil in wood-fiber pots and covered with soil. The compounds of the invention, formulated in the form of wettable powders (WP) or as emulsion concentrates (EC), are then applied to the surface of the covering soil in the form of an aqueous suspension or emulsion at a water application rate equivalent to 600 to 800 l/ha, with addition of 0.2% wetting agent. After the treatment, the pots are placed in a greenhouse and kept under good growth conditions for the trial plants. The damage to the test plants is scored visually after a test period of 3 weeks by comparison with untreated controls (herbicidal activity in percent (%): 100% activity=the plants have died, 0% activity=like control plants). […] The tables below illustrate, in an illustrative manner, the post-emergence herbicidal action of the compounds of the invention, the herbicidal activity being stated in percent.

MATIN Matricaria inodora [4] = assay: as above; settings: scored visually after 3 weeks vs untreated controls
Text: as §2

[5] = system: ECHCG Echinochloa crus-galli; assay: as above; settings: scored visually after 3 weeks vs untreated controls
Text: as §2

[6] = system: DIGSA Digitaria sanguinalis; assay: as above; settings: scored visually after 3 weeks vs untreated controls
Text: as §2

[7] = system: ALOMY Alopecurus myosuroides; assay: as above; settings: 80 g/ha, scored visually after 3 weeks vs untreated controls
Text: as §2

[8] = system: AMARE Amaranthus retroflexus; assay: as above; settings: scored visually after 3 weeks vs untreated controls
Text: as §2

[9] = system: ABUTH Abutilon theophrasti; assay: as above; settings: scored visually after 3 weeks vs untreated controls
Text: as §2

[10] = system: ECHCG Echinochloa crus-galli; assay: Post-emergence herbicidal action against harmful plants; settings: 20 g/ha, one-leaf stage, assessed visually after about 3 weeks vs untreated controls
Text: as §1

[11] = system: DIGSA Digitaria sanguinalis; assay: as above; settings: one-leaf stage, assessed visually after about 3 weeks vs untreated controls
Text: as §1

[12] = system: AMARE Amaranthus retroflexus; assay: as above; settings: one-leaf stage, assessed visually after about 3 weeks vs untreated controls
Text: as §1

VERPE Veronica persica = assay: Pre-emergence herbicidal action against harmful plants; settings: scored visually after 3 weeks vs untreated controls
Text: as §2

SETVI Setaria viridis [13] = assay: Post-emergence herbicidal action against harmful plants; settings: one-leaf stage, assessed visually after about 3 weeks vs untreated controls
Text: as §1

PHBPU Pharbitis purpurea = assay: as above; settings: 20 g/ha, one-leaf stage, assessed visually after about 3 weeks vs untreated controls
Text: as §1

[14] = system: POLCO Polygonum convolvulus; assay: Pre-emergence herbicidal action against harmful plants; settings: 80 g/ha, scored visually after 3 weeks vs untreated controls
Text: as §2

[15] = system: ABUTH Abutilon theophrasti; assay: Post-emergence herbicidal action against harmful plants; settings: one-leaf stage, assessed visually after about 3 weeks vs untreated controls
Text: as §1

[16] = system: ALOMY Alopecurus myosuroides; assay: as above; settings: one-leaf stage, assessed visually after about 3 weeks vs untreated controls
Text: as §1

Row | Structure (SMILES) | Pre-emergence action at 80 g/ha against SETVI in % (SETVI Setaria viridis [3]) [%] | Pre-emergence action at 20 g/ha against MATIN in % (MATIN Matricaria inodora [4]) [%] | Pre-emergence action at 80 g/ha against MATIN in % (MATIN Matricaria inodora [4]) [%] | Pre-emergence action at 80 g/ha against ECHCG in % [5] [%] | Pre-emergence action at 20 g/ha against DIGSA in % [6] [%] | Pre-emergence action at 80 g/ha against DIGSA in % [6] [%] | Pre-emergence action at 80 g/ha against ALOMY in % [7] [%] | Pre-emergence action at 20 g/ha against AMARE in % [8] [%] | Pre-emergence action at 80 g/ha against AMARE in % [8] [%] | Pre-emergence action at 80 g/ha against ABUTH in % [9] [%] | Post-emergence action at 20 g/ha against ECHCG in % [10] [%] | Post-emergence action at 5 g/ha against AMARE in % [12] [%] | Post-emergence action at 20 g/ha against AMARE in % [12] [%] | also measured
1 | Cc1c(C(=O)Nc2nnnn2C)c(F)cc(C(F)(F)F)c1C(=O)N(C)C1CC1 [Example 1-97] | 80 | 90 | 100 | 90 | 80 | 100 | 80 | 100 | 100 | 100 | – | – | – | Post-emergence action at 20 g/ha against MATIN in % (MATIN Matricaria inodora [1]): 80%; Post-emergence action at 20 g/ha against POLCO in % [2]: 100%; Pre-emergence action at 20 g/ha against ABUTH in % [9]: 100%
2 | CCN(C)C(=O)c1c(C(F)(F)F)cc(F)c(C(=O)Nc2nnnn2C)c1C [Example 1-96] | 100 | 80 | 100 | 80 | – | 100 | 80 | – | 100 | 100 | 80 | 80 | 90 | Post-emergence action at 20 g/ha against DIGSA in % [11]: 90%
3 | CCn1nnnc1NC(=O)c1c(F)cc(C(F)(F)F)c(C(=O)N(C)C2CC2)c1C [Example 2-97] | – | 90 | 100 | 80 | 90 | 100 | – | 100 | 100 | 100 | – | – | – | Post-emergence action at 20 g/ha against MATIN in % (MATIN Matricaria inodora [1]): 80%; Pre-emergence action at 20 g/ha against VERPE in % (VERPE Veronica persica; 20 g/ha): 80%; Pre-emergence action at 80 g/ha against VERPE in % (VERPE Veronica persica): 80%; Pre-emergence action at 20 g/ha against ABUTH in % [9]: 100%
4 | CNC(=O)c1c(C(F)(F)F)cc(F)c(C(=O)Nc2nnnn2C)c1C [Example 1-92] | 100 | 90 | 90 | – | – | 100 | 80 | 90 | 100 | 100 | 80 | 80 | 90 | Post-emergence action at 20 g/ha against SETVI in % (SETVI Setaria viridis [13]): 80%; Post-emergence action at 20 g/ha against PHBPU in % (PHBPU Pharbitis purpurea): 80%; Pre-emergence action at 20 g/ha against SETVI in % (SETVI Setaria viridis [3]; 20 g/ha): 80%
5 | CCn1nnnc1NC(=O)c1c(F)cc(C(F)(F)F)c(C(=O)NCC(F)F)c1C [Example 2-385] | – | 80 | 90 | 80 | 90 | 100 | – | – | 100 | 100 | – | 80 | 90 | Post-emergence action at 20 g/ha against SETVI in % (SETVI Setaria viridis [13]): 80%; Pre-emergence action at 80 g/ha against POLCO in % [14]: 90%
6 | CNC(=O)c1c(C(F)(F)F)cc(F)c(C(=O)Nc2nnnn2C)c1Cl [Example 1-180] | – | – | 100 | – | 80 | 80 | – | 100 | 100 | 100 | – | 80 | 90 | Post-emergence action at 20 g/ha against ABUTH in % [15]: 90%
7 | CCNC(=O)c1c(C(F)(F)F)cc(F)c(C(=O)Nc2nnnn2C)c1Cl [Example 1-181] | – | – | 100 | – | – | 80 | – | 100 | 100 | 100 | – | 90 | 90 | Post-emergence action at 20 g/ha against ABUTH in % [15]: 90%
8 | Cn1nnnc1NC(=O)c1c(F)cc(C(F)(F)F)c(C(=O)NC2CC2)c1Cl [Example 1-182] | – | – | 100 | – | 90 | 100 | 80 | 100 | 100 | 100 | 80 | 80 | 100 | Post-emergence action at 20 g/ha against ALOMY in % [16]: 80%; Pre-emergence action at 80 g/ha against POLCO in % [14]: 90%; Pre-emergence action at 80 g/ha against VERPE in % (VERPE Veronica persica): 100%
